Columns and labels:
CaMKII = assay: Western blot of CaMKII activation (p-CaMKII T287) in myoblasts; assay type: cell-based, mouse
Protocol: Western Blot analysis. Cultured cells and whole tissues extracts were prepared with RIPA buffer supplemented with protease inhibitor cocktail (SIGMA P8340), and phosphatase inhibitor cocktails (SIGMA P5726 and P0044). Western blotting was performed using the Mini-PROTEAN Tetra Cell electrophoresis system, and transferred to PVDF membranes. The following primary antibodies concentrations were used p-CAMKII 1:1000 (Abcam ab182647), CaMKII 1:1000 (Cell Signaling 3362), GAPDH 1:10,000 (Abcam ab181602), p-ERK1/2 1:20,000 (SIGMA M9692), ERK1/2 1:40,000 (SIGMA), Myosin Heavy Chain (MF-20 DSHB hybridoma supernatant 1:100) Horseradish peroxidase conjugated secondary anti-mouse, anti-rabbit or anti-goat was used to detect proteins (Jackson Immunology). Western blots were imaged using the Chemidoc Multiplex system (Bio-rad).

ovine myoblasts = assay: Live imaging of fusion in ovine myoblasts; assay type: cell-based; settings: sheep derived myoblasts, 1 μM
Protocol: (§1) Bovine myoblasts were seeded in equal number in 96-well plates and the following day treated either with PM, PM supplemented with 0.5 uM SCH 772984 (ERKi) or differentiation media (DM). Media was replenished daily either with fresh PM or DM (ERKi was not added again). At 72 hours post treatment, cells were fixed and stained for myosin heavy chain, and several fields per condition were imaged. Nuclei per fiber was quantified per field to result in a fusion index. For ovine myoblasts—equal number of cells were seeded in an 8 well chamber slide for 24 hours. The following day cells were treated with either with 1 uM SCH 772984 (ERKi) or differentiation media (DM), supplemented with 100 nM of Sir-Actin reagent, then incubated for 4 hours and then the slide was transferred to a heated and CO2 chambered microscope unit. Several fields of view were selected and live imaging was performed by capturing images of each field every 7 minutes. The series of images for each treatment over a period of 31 hours was stacked into a movie file using ImageJ.

primary mouse myoblasts = assay: MYOG positive nuclei in primary mouse myoblasts (immunofluorescence); assay type: cell-based; settings: 24 hours, ERKi in growth medium
Protocol: Isolation of and treatment of primary myoblasts. Primary mouse myoblasts were isolated from gastrocnemius muscle using trypsin-tissue dissociation. Briefly, muscle tissues were incubated in Trypsin B (0.25%, Biological Industries) and subjected to mechanical dissociation with a serological pipet. Supernatants were strained and centrifuged. Pellets were grown resuspended in BioAmf-2 media (Biological Industries, Israel) and plated on 10% Matrigel (BD Biosciences)-coated plates at 37° and 5% CO2. For all in vitro experiments, proliferation medium was Bio-Amf2 (Biological Industries, Israel) and Differentiation medium (DM) was DMEM 2% Horse Serum (HS) with 1% Pen/Strep. For fusion assays, cells were trypsinized with Trypsin C (0.05%, Biological Industries) and subjected to two rounds of preplating on uncoated plates to reduce the number of fibroblasts. Cells were plated at a density of 8×10^3 per well in 10% Matrigel-coated 96-well plates in proliferation medium for 24 hours. The following day, proliferation media was replaced either with proliferation media or with DM containing DMSO (Ctrl) or 1 μM ERK1/2 inhibitor (ERKi; SCH772984, Cayman Chemicals), […] RXR antagonist (RXRi; HX-531, Cayman Chemicals), […] Ryanodine receptor antagonist (RYRi; Dantrolene, Cayman Chemicals), 5 μM CaMKII inhibitor (CaMKIIi; KN93, Cayman Chemicals), or with DM for controls.
Immunofluorescence staining. First passage primary myoblasts isolated from various strains (indicated in figure legends) were plated in 96-well plates or chamber slides and treated as previously described. The cells were fixed with ice cold 4% PFA in PBS for 10 minutes, permeabilized with 0.5% Triton X-100 in PBS for 6 minutes, and blocked in PBS with 0.025% tween, 10% normal horse serum and 10% normal goat serum for 1 hour at room temperature. Primary antibody incubation was done in blocking buffer overnight at 4 degrees, with the following antibodies: Myosin Heavy Chain (MyHC, MF20, DSHB hybridoma supernatant 1:10, or MY-32 ABCAM ab51263 1:400), Myogenin (MYOG sc-13137 SCBT 1:200), pHistone 3 (PH3, ab47297 ABCAM 1:1000), Ki-67 (Cell Marque #275R), RYR (ab2868 ABCAM 1:100), and pCaMKII (SIGMA SAB4504356 1:100). Cells were washed 3 times in PBS with 0.025% tween and then incubated with appropriate secondary antibodies in PBS 1 hour. Where indicated, nuclei were either labeled with DAPI (SIGMA D9542, 5 ug/ml) or Hoechst 33342 (Thermo scientific #62249, 1:2000). Fixed cells at 24 hours post treatment with indicated inhibitors were imaged using the Nikon Eclipse Ti2 microscope (further described in microscopy section). All analysis was performed on at least 1000 nuclei. For fixed cells following the timecourse with ERKi or DM (FIG. 1B), images were captured with an inverted Olympus IX83 microscope (further details in microscopy section). All imaging analysis were performed on at least 1000 cells.

primary bovine myoblasts = assay: Fusion index of primary bovine myoblasts; assay type: cell-based; settings: single administration of 0.5 uM, 72 hours post treatment
Protocol: as §1
Primary bovine myoblast isolation and treatment: bovine myoblasts were isolated from freshly slaughtered muscle cow muscle with collagenase type II. Following tissue dissociation, the cell suspension was grown for 3-4 days on 10% Matrigel coated plates. […]

## O=C(Nc1ccc2[nH]nc(-c3ccncc3)c2c1)[C@@H]1CCN(CC(=O)N2CCN(c3ccc(-c4ncccn4)cc3)CC2)C1 [SCH772984]
CaMKII; 1 μM ERKi time-course
  Time of CaMKII activation post ERKi treatment: ≤ 16 h
CaMKII; treatment of myoblasts with ERKi, 24 hours
  CaMKII activation (p-CaMKII T287): activated
Ovine myoblasts
  Fusion and myotube formation compared to DM: significantly more fusion and myotube formation
Primary mouse myoblasts
  Fraction of MYOG positive nuclei compared to DM: significantly higher
Primary bovine myoblasts
  Increase in fusion index compared to DM: ~8 fold
Primary bovine myoblasts; listed as ERKi
  Increase in fusion index compared to DM: 6 fold

Source: US20240074473A1, “METHOD FOR INDUCING HYPERTROPHIC MUSCLE FIBERS FOR INDUSTRIAL MEAT PRODUCTION” (Yeda Research and Development Co. Ltd., priority 2021, published 2024)
